Results reported in patent US20160354359A1, “C[…]-[…] A NET INHIBITOR FOR ADM[…] A BRAIN-DEAD, HEART-BEATING POTENTIAL ORGAN DONOR” (VIVOLINE MEDICAL AB, priority 2008, published 2016).

Tests used:
blood pressure = details: in vivo; cited from earlier work
[1] = in vivo; cited from earlier work
brain-dead body of a pig [2] = assay: Experiment 2: infusion of desipramine solution with adrenaline and noradrenaline, blood pressure
Protocol: In addition 1 mg of adrenaline and 1 mg of noradrenaline was included in the solution.

brain-dead pigs = assay: More than 20 experiments with pigs using cocaine in combination with adrenaline and noradrenaline, blood pressure over 24 hours; assay type: in vivo, pig; details: from initiation of the intervention and over 24 hours
Source text: The inventor has performed more than 20 experiments with pigs and using cocaine in combination with adrenaline and noradrenaline.

[3] = system: brain-dead, heart-beating, respirated donor; details: blood circulation
Protocol: In order to test this hypothesis, other NET inhibitors were tested, such as desipramine and imipramine, which both are known to be NET inhibitors.

brain-dead body of a pig [4] = details: adrenaline and noradrenaline at constant 0.4 ml/hour
Protocol: In this experiment, adrenaline and noradrenaline was added at a constant rate of 0.4 ml/hour.

[5] = molecular target: NET (norepinephrine transporter) (Homo sapiens, UniProt P23975); details: cited from earlier work
Sequence of NET (norepinephrine transporter) (P23975 whole entry, species assumed): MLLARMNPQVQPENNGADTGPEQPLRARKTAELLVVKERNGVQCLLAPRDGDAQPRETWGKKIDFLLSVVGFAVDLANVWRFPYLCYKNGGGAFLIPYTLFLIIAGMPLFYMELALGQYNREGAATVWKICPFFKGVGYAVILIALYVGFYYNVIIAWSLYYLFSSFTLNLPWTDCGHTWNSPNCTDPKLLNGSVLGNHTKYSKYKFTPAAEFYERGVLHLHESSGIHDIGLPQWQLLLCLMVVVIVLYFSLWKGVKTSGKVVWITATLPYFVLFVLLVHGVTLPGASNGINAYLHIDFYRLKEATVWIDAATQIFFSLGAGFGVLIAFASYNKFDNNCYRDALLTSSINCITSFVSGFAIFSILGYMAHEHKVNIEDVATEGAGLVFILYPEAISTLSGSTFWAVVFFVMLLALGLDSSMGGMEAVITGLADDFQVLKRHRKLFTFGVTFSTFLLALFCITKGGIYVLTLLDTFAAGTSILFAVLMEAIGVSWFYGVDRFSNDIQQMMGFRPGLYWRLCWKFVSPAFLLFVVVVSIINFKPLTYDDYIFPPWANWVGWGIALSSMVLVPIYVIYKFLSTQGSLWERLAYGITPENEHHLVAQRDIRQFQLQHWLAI

alpha-1 = assay: Potency as replacement of noradrenaline (alpha-1-agonist)
Source text: In some embodiments, the adrenaline and/or noradrenaline may be partly or entirely replaced by an equivalent substance. For example, phenylephrine is an alpha-1-agonist and may replace noradrenaline.

## CCN(CC)CC(=O)Nc1c(C)cccc1C [Lidocaine]
Blood pressure
  effect of infusion on blood pressure: vasodilatation and a lowering of the blood pressure

## CNCCCN1c2ccccc2CCc2ccccc21 [desipramine, Desipramine]
[1]
  half-life time: 30 h
brain-dead body of a pig [2]; 3 mg desipramine, 1 mg adrenaline, 1 mg noradrenaline in 50 ml, 1.7 then 3.2 ml/hour, from a mean pressure of about 40 mmHg
  mean pressure reached on infusion: 80 mmHg
brain-dead body of a pig [2]; infusion decreased to 2.5 then 1.7 ml/hour, never decreased further
  blood pressure after infusion rate was decreased: about 60 mmHg

## NC(=O)CC[C@@H]1NC(=O)[C@H](Cc2ccccc2)NC(=O)[C@H](Cc2ccc(O)cc2)NC(=O)[C@@H](N)CSSC[C@@H](C(=O)N2CCC[C@H]2C(=O)N[C@@H](CCCN=C(N)N)C(=O)NCC(N)=O)NC(=O)[C@H](CC(N)=O)NC1=O [ADH, vasopressin]
[1]
  half-life-time: about 15 minutes

## COC(=O)[C@H]1[C@@H](OC(=O)c2ccccc2)C[C@@H]2CC[C@H]1N2C [cocaine, benzoylmethyl ecgonine]
brain-dead pigs
  blood pressure maintained at a constant level: 70 mmHg
[3]
  effect of addition together with noradrenaline on noradrenaline needed for vasoconstriction: much lower levels of noradrenaline
brain-dead body of a pig [4]; bolus of 2 mg at 21 hours
  effect of bolus on blood pressure: increase of the blood pressure
  time after which the effect of the bolus ceased: about 3 hours
[1]
  half-life time: about 1 hours

## CNCCCN1c2ccccc2CCc2ccc(Cl)cc21 [Norclomipramine]
[5]
  potency among typical NET inhibitors: highest

## CNCCCC1c2ccccc2C=Cc2ccccc21 [Protriptylin, Protriptyline]
[5]
  potency among typical NET inhibitors: highest

## CN(C)CCCN1c2ccccc2CCc2ccccc21 [imipramine, Imipramine]
brain-dead body of a pig [4]; bolus at 24.5 hours, from about 80 mmHg
  blood pressure reached after bolus: about 100 mmHg

## CNC[C@H](O)c1cccc(O)c1 [phenylephrine]
alpha-1
  times less potent as noradrenaline: about 5 times
